Reference: ChEMBL document CHEMBL3885861, “Open TG-GATES”

Species: Rattus norvegicus
Assay: Open TG-GATES - Regimen: Daily Repeat
Type: toxicity, organism-based, Sprague-Dawley
Set-up: regimen Daily Repeat, gender Male, age 6 weeks
Conditions: in vivo, po, route gavage; for Bas / Eos / Fbg / Ht / Lym / MCH / MCHC / MCV / Mono / Neu / PT / Plat / RBC / Ret / WBC / APTT: tissue Blood; for KIDNEY_L / KIDNEY_R / KIDNEY_TOTAL: tissue Kidney; for ALP / ALT / AST / CRE / Ca / Cl / DBIL / GLC / IP / K / LDH / RALB / TBIL / TC / TG / TP / gamma-GTP: tissue Plasma
[1] = 0 mg/kg, 72 h, dose level Control, time 3 day
[2] = 0 mg/kg, […], dose level Control, time 7 day
[3] = 0 mg/kg, […], dose level Control, time 14 day
[4] = 0 mg/kg, […], dose level Control, time 28 day
[5] = 10 mg/kg, 72 h, dose level Low, time 3 day
[6] = 10 mg/kg, […], dose level Low, time 7 day
[7] = 10 mg/kg, […], dose level Low, time 14 day
[8] = 10 mg/kg, […], dose level Low, time 28 day

## Cn1c(=O)c2c(ncn2C)n(C)c1=O [CAFFEINE]
[1]
  TERMINAL_BW: 229.3 g
  Bas: 0%
  Eos: 0.6%
  Fbg: 311 mg/dL
  Ht: 39.9%
  Lym: 81.2%
  MCH: 21.1 pg
  MCHC: 33.1%
  MCV: 63.7 fL
  Mono: 2%
  Neu: 15.6%
  PT: 15.7 s
  Plat: 113.5 x10_4/uL
  RBC: 627 x10_4/ul
  Ret: 6.4%
  WBC: 79.7 x10_2/uL
  KIDNEY_L: 1 g
  KIDNEY_R: 1 g
  KIDNEY_TOTAL: 2 g
  ALP: 1435.4 IU/L
  ALT: 51.2 IU/L
  AST: 77 IU/L
  CRE: 0.2 mg/dL
  Ca: 10.9 mg/dL
  Cl: 108.2 meq/L
  DBIL: 0 mg/dL
  GLC: 187.2 mg/dL
  IP: 7.9 mg/dL
  K: 4.1 meq/L
  LDH: 159 IU/L
  RALB: 3 g/dL
  TBIL: 0.004 mg/dL
  TC: 69.2 mg/dL
  TG: 83.4 mg/dL
  TP: 5.6 g/dL
  gamma-GTP: 1.4 IU/L
[2]
  TERMINAL_BW: 259.6 g
  APTT: 22.5 s
  Bas: 0%
  Eos: 0.8%
  Fbg: 342.6 mg/dL
  Ht: 40.7%
  Lym: 79%
  MCH: 21.2 pg
  MCHC: 33.6%
  MCV: 63.2 fL
  Mono: 1.8%
  Neu: 17.4%
  PT: 15.4 s
  Plat: 116.2 x10_4/uL
  RBC: 644.8 x10_4/ul
  Ret: 6%
  WBC: 120.4 x10_2/uL
  KIDNEY_L: 1.1 g
  KIDNEY_R: 1.1 g
  KIDNEY_TOTAL: 2.3 g
  ALP: 1993.2 IU/L
  ALT: 46 IU/L
  AST: 70.6 IU/L
  CRE: 0.1 mg/dL
  Ca: 10.5 mg/dL
  Cl: 106 meq/L
  DBIL: 0 mg/dL
  GLC: 197.8 mg/dL
  IP: 7.7 mg/dL
  K: 4.7 meq/L
  LDH: 185.6 IU/L
  RALB: 3 g/dL
  TBIL: 0 mg/dL
  TC: 76.6 mg/dL
  TG: 118.6 mg/dL
  TP: 5.5 g/dL
  gamma-GTP: 1.8 IU/L
[3]
  TERMINAL_BW: 312 g
  APTT: 22.6 s
  Bas: 0%
  Eos: 1%
  Fbg: 311.4 mg/dL
  Ht: 41.1%
  Lym: 84.2%
  MCHC: 34.2%
  MCV: 59.8 fL
  Mono: 2.4%
  Neu: 11.4%
  PT: 15.5 s
  Plat: 117.4 x10_4/uL
  RBC: 688 x10_4/ul
  Ret: 4.3%
  WBC: 117.6 x10_2/uL
  KIDNEY_L: 1.2 g
  KIDNEY_R: 1.2 g
  KIDNEY_TOTAL: 2.4 g
  ALP: 1572.4 IU/L
  ALT: 40.8 IU/L
  AST: 68.4 IU/L
  CRE: 0.2 mg/dL
  Ca: 10.5 mg/dL
  Cl: 104.6 meq/L
  DBIL: 0 mg/dL
  GLC: 216 mg/dL
  IP: 7.5 mg/dL
  K: 4.5 meq/L
  LDH: 181 IU/L
  RALB: 3 g/dL
  TBIL: 0 mg/dL
  TG: 150.2 mg/dL
  TP: 5.8 g/dL
  gamma-GTP: 2.4 IU/L
[4]
  TERMINAL_BW: 388.1 g
  Bas: 0%
  Eos: 1.2%
  Fbg: 317 mg/dL
  Ht: 43.6%
  Lym: 81%
  MCH: 19.4 pg
  MCHC: 34.6%
  MCV: 56.1 fL
  Mono: 1.6%
  PT: 15.7 s
  Plat: 102.1 x10_4/uL
  RBC: 778.2 x10_4/ul
  Ret: 2.6%
  WBC: 103.3 x10_2/uL
  KIDNEY_L: 1.4 g
  KIDNEY_R: 1.5 g
  KIDNEY_TOTAL: 2.9 g
  ALP: 1038 IU/L
  ALT: 43.6 IU/L
  AST: 66.6 IU/L
  CRE: 0.2 mg/dL
  Ca: 10.4 mg/dL
  Cl: 105 meq/L
  DBIL: 0 mg/dL
  GLC: 197.4 mg/dL
  IP: 6.6 mg/dL
  K: 4.1 meq/L
  LDH: 146 IU/L
  RALB: 3.1 g/dL
  TBIL: 0.004 mg/dL
  TC: 71 mg/dL
  TG: 138.8 mg/dL
  TP: 6.1 g/dL
  gamma-GTP: 2.2 IU/L
[5]
  TERMINAL_BW: 226.8 g
  APTT: 21.4 s
  Bas: 0%
  Eos: 1%
  Fbg: 307.2 mg/dL
  Ht: 38.9%
  Lym: 80.2%
  MCH: 20.9 pg
  MCHC: 33.2%
  MCV: 62.9 fL
  Mono: 1.8%
  Neu: 16.4%
  PT: 15.5 s
  Plat: 118.8 x10_4/uL
  RBC: 618.6 x10_4/ul
  Ret: 5.7%
  WBC: 73.5 x10_2/uL
  KIDNEY_L: 1 g
  KIDNEY_R: 1 g
  KIDNEY_TOTAL: 2 g
  ALP: 1442.2 IU/L
  ALT: 43.8 IU/L
  AST: 70.8 IU/L
  CRE: 0.2 mg/dL
  Ca: 10.8 mg/dL
  Cl: 107.6 meq/L
  DBIL: 0 mg/dL
  GLC: 183.2 mg/dL
  IP: 7.5 mg/dL
  K: 4.2 meq/L
  LDH: 154.6 IU/L
  RALB: 3 g/dL
  TBIL: 0.004 mg/dL
  TC: 75.8 mg/dL
  TG: 87.8 mg/dL
  TP: 5.6 g/dL
  gamma-GTP: 1.2 IU/L
[6]
  TERMINAL_BW: 259.9 g
  APTT: 22.8 s
  Bas: 0%
  Eos: 1%
  Fbg: 316 mg/dL
  Ht: 40.6%
  Lym: 79%
  MCH: 20.9 pg
  MCHC: 33.3%
  MCV: 62.7 fL
  Mono: 2%
  Neu: 16.8%
  PT: 15.3 s
  Plat: 112.2 x10_4/uL
  RBC: 648.4 x10_4/ul
  Ret: 6.1%
  WBC: 106.3 x10_2/uL
  KIDNEY_L: 1.1 g
  KIDNEY_R: 1.1 g
  KIDNEY_TOTAL: 2.2 g
  ALP: 1552.6 IU/L
  ALT: 47.6 IU/L
  AST: 75.2 IU/L
  CRE: 0.2 mg/dL
  Ca: 10.5 mg/dL
  Cl: 106.4 meq/L
  DBIL: 0 mg/dL
  GLC: 192.8 mg/dL
  IP: 7.8 mg/dL
  K: 4.4 meq/L
  LDH: 179.4 IU/L
  RALB: 3 g/dL
  TBIL: 0.002 mg/dL
  TC: 73.4 mg/dL
  TG: 102.4 mg/dL
  TP: 5.5 g/dL
  gamma-GTP: 2.4 IU/L
[7]
  TERMINAL_BW: 300.9 g
  APTT: 23.2 s
  Bas: 0%
  Eos: 0.8%
  Fbg: 306.2 mg/dL
  Ht: 41.1%
  Lym: 81.2%
  MCH: 20.1 pg
  MCHC: 34%
  MCV: 59.2 fL
  Mono: 1.4%
  Neu: 15.4%
  PT: 15.1 s
  Plat: 112.6 x10_4/uL
  RBC: 693.6 x10_4/ul
  Ret: 4.5%
  WBC: 105.4 x10_2/uL
  KIDNEY_L: 1.2 g
  KIDNEY_R: 1.2 g
  KIDNEY_TOTAL: 2.5 g
  ALP: 1475.8 IU/L
  AST: 71.8 IU/L
  CRE: 0.2 mg/dL
  Ca: 10.6 mg/dL
  Cl: 105.8 meq/L
  DBIL: 0 mg/dL
  GLC: 194 mg/dL
  IP: 6.8 mg/dL
  K: 4.2 meq/L
  LDH: 160.2 IU/L
  RALB: 3 g/dL
  TBIL: 0.004 mg/dL
  TC: 68.4 mg/dL
  TG: 146.6 mg/dL
  TP: 5.8 g/dL
  gamma-GTP: 2.2 IU/L
[8]
  TERMINAL_BW: 396.8 g
  APTT: 25.8 s
  Bas: 0%
  Eos: 0.6%
  Fbg: 309.2 mg/dL
  Ht: 43.1%
  Lym: 84%
  MCHC: 34.5%
  MCV: 54.7 fL
  Mono: 1.6%
  Plat: 99.3 x10_4/uL
  RBC: 788.8 x10_4/ul
  Ret: 2.5%
  WBC: 105.2 x10_2/uL
  KIDNEY_L: 1.5 g
  KIDNEY_R: 1.5 g
  KIDNEY_TOTAL: 3 g
  ALP: 1054 IU/L
  ALT: 43 IU/L
  AST: 66.2 IU/L
  CRE: 0.2 mg/dL
  Ca: 10.4 mg/dL
  Cl: 105.8 meq/L
  DBIL: 0 mg/dL
  GLC: 204.4 mg/dL
  IP: 6.7 mg/dL
  K: 4 meq/L
  LDH: 153 IU/L
  RALB: 3.2 g/dL
  TBIL: 0.004 mg/dL
  TC: 73.6 mg/dL
  TG: 147.6 mg/dL
